Patent US20240246903A1, “INDANONE AND TETRALONEKETO OR HYDROXYL OXIMES AS CANCEL THERAPEUTICS” (Board of Regents, The University of Texas System, priority 2021, published 2024)

Tested on: GBM cells
Assay: GBM cell viability (MTT assay)
Assay type: cell-based
Details: FIG. 3, read-out: concentration that reduces cell viability by 50%
Description: To assess, the antitumor activity of the new ERβ agonist compounds, GBM cells were assessed for viability using a commercially available MTT assay. Briefly, the assay determines the number of viable cells in culture by […], which indicates the presence of metabolically active cells. Previously described agonists such as LY was able to reduce viability by 50% with concentration of 10 μM or greater. The new compounds described in this disclosure have higher potency than existing compounds and some reduce cell viability by 50% at concentrations even at 3 μM (FIG. 3).

In the case of `Oc1ccc([C@@H]2Oc3ccc(O)cc3[C@@H]3CCC[C@@H]32)cc1` [LY, (3aS,4R,9bR)-4-(4-hydroxyphenyl)-1,2,3,3a,4,9b-hexahydrocyclopenta[c]chromen-8-ol], the IC50 is reported as ≥ 10 µM.
